Measured values reported in the OPERA property sets (Mansouri et al. 2018).

Conditions: for log10 BCF / log10 biotransformation half-life (days): fish

Q: Which melting point does the source give for CCOC(=O)C=CC(=O)O here?
A: 70 °C

Q: With Cc1ccc(O)cc1O as the compound, how does the boiling point read?
A: 268 °C

Q: And the melting point?
A: 106 °C

Q: What does the source list for C#CC(C)(C)C?
A: boiling point: 37.7 °C; melting point: -78.2 °C

Q: For C1CCCCCCCCCCCCCC1, which melting point is on record?
A: 61.3 °C

Q: Which results are given for CCSCc1ccccc1OC(=O)NC?
A: log10 vapour pressure (mmHg): -5.15; melting point: 33.4 °C

Q: For NS(=O)(=O)c1ccc(S(=O)(=O)CCO)c(F)c1, which melting point is on record?
A: 165 °C

Q: With CCCCCCCC/C=C/CCCCCCCC(=O)O as the compound, how does the melting point read?
A: 29.2 °C

Q: With O=C(Oc1ccccc1C(=O)O)c1ccccc1O as the compound, how does the melting point read?
A: 147 °C

Q: With CCCCCCCCCC(C)C=O (configuration not stated) as the compound, how does the boiling point read?
A: 171 °C

Q: Which melting point does the source give for COc1cc(C=CC(=O)O)cc(OC)c1OC here?
A: 127 °C

Q: Which boiling point does the source give for c1cncnc1 here?
A: 124 °C

Q: What about the melting point of the same compound?
A: 22 °C

Q: What about the ready biodegradability of the same compound?
A: not readily biodegradable

Q: For CCC(C)(CC)CC(C)C, which boiling point is on record?
A: 161 °C

Q: With Clc1ncccn1 as the compound, how does the melting point read?
A: 67 °C

Q: Which melting point does the source give for CCOP(=S)(S)OCC here?
A: -10 °C

Q: What about the ready biodegradability of the same compound?
A: not readily biodegradable

Q: What about the log10 BCF of the same compound?
A: 0.7

Q: With CCCCCCCCCCCCCCCCCCCCCCCCCCO as the compound, how does the melting point read?
A: 80 °C

Q: What about the ready biodegradability of the same compound?
A: readily biodegradable

Q: For CCCSc1ccc2[nH]c(NC(=O)OC)nc2c1, which melting point is on record?
A: 209 °C

Q: Which melting point does the source give for CN(N=O)c1ccccc1 here?
A: 14.7 °C

Q: Which boiling point does the source give for COCCl here?
A: 59.5 °C

Q: What about the log10 vapour pressure (mmHg) of the same compound?
A: 1.48

Q: What about the melting point of the same compound?
A: -104 °C

Q: What about the ready biodegradability of the same compound?
A: readily biodegradable

Q: Which melting point does the source give for O=C(O)CCCCl here?
A: 16 °C

Q: With C=CCC1(C(C)CC)C(=O)NC(=O)NC1=O (configuration not stated) as the compound, how does the melting point read?
A: 109 °C

Q: Which boiling point does the source give for BrCCI here?
A: 163 °C

Q: What about the melting point of the same compound?
A: 28 °C

Q: With Clc1ccc(Br)c(Cl)c1 as the compound, how does the boiling point read?
A: 235 °C

Q: And the melting point?
A: 26 °C

Q: For CC(C)CCCCCCO, which boiling point is on record?
A: 206 °C

Q: And the melting point?
A: 64.5 °C

Q: Which melting point does the source give for O=C(O)c1cc(O)ccc1O here?
A: 200 °C

Q: For c1ccc(CCc2ccccc2)cc1, which boiling point is on record?
A: 284 °C

Q: What about the log10 vapour pressure (mmHg) of the same compound?
A: -2.14

Q: And the melting point?
A: 52.5 °C

Q: And the ready biodegradability?
A: readily biodegradable

Q: With Clc1cc2c(oc3c(Cl)c(Cl)ccc32)c(Cl)c1Cl as the compound, how does the log10 biotransformation half-life (days) read?
A: 0.9

Q: With COc1cc(C(=O)OCCCN(C)CCN(C)CCCOC(=O)c2cc(OC)c(OC)c(OC)c2)cc(OC)c1OC as the compound, how does the melting point read?
A: 76 °C

Q: Which boiling point does the source give for O=C(O)CBr here?
A: 208 °C

Q: What about the log10 Henry constant (atm·m³/mol) of the same compound?
A: -8.19

Q: And the log10 vapour pressure (mmHg)?
A: -0.926

Q: And the melting point?
A: 50 °C

Q: With NC(=O)c1ccc(Br)cc1 as the compound, how does the melting point read?
A: 192 °C

Q: For CC1(C)CCCCC1, which boiling point is on record?
A: 120 °C

Q: What about the log10 vapour pressure (mmHg) of the same compound?
A: 1.36

Q: What about the melting point of the same compound?
A: -33.3 °C

Q: What about the ready biodegradability of the same compound?
A: not readily biodegradable

Q: For CCOC(=O)c1ccccc1OC, which boiling point is on record?
A: 261 °C

Q: Which boiling point does the source give for C=CCCCBr here?
A: 126 °C

Q: With COc1cc([N+](=O)[O-])c2ncccc2c1 as the compound, how does the melting point read?
A: 159 °C

Q: With O=C1CC(=O)NC(=S)N1 as the compound, how does the log10 vapour pressure (mmHg) read?
A: -7.7

Q: Which results are given for N#CC(F)(Cl)Cl?
A: boiling point: 33 °C; melting point: -110 °C

Q: With CC(C)CCOc1ccc(NC(=S)Nc2ccc(OCCC(C)C)cc2)cc1 as the compound, how does the melting point read?
A: 146 °C

Q: With CCOC(=O)C(NC(C)=O)C(=O)OCC as the compound, how does the melting point read?
A: 96.3 °C

Q: With C[Si](C)(C)C as the compound, how does the boiling point read?
A: 26.6 °C

Q: And the log10 vapour pressure (mmHg)?
A: 2.86

Q: What about the melting point of the same compound?
A: -99 °C

Q: Which melting point does the source give for CC(=O)CC(c1ccc(Cl)cc1)c1c(O)c2ccccc2oc1=O (configuration not stated) here?
A: 169 °C

Q: With O=C(O)Cc1ccccc1O as the compound, how does the boiling point read?
A: 240 °C

Q: What about the melting point of the same compound?
A: 148 °C

Q: With CC1=CCC(O)(C(C)C)CC1 (configuration not stated) as the compound, how does the boiling point read?
A: 209 °C

Q: For C=CC(=O)O[C@@H]1C[C@H]2CC[C@]1(C)C2(C)C, which melting point is on record?
A: 97 °C

Q: With O=C(O)c1ccc(Sc2ccccc2)cc1 as the compound, how does the ready biodegradability read?
A: readily biodegradable

Q: With CCN(CC)c1ccc([N+](=O)[O-])cc1 as the compound, how does the melting point read?
A: 77.5 °C

Q: Which melting point does the source give for Oc1ccc(OCc2ccccc2)cc1 here?
A: 122 °C

Q: For OCCCCCCCCCCCCO, which melting point is on record?
A: 81.3 °C

Q: What does the source list for CCCCCCC1CCCCC1?
A: boiling point: 224 °C; log10 vapour pressure (mmHg): -0.943; melting point: -43 °C; log10 biotransformation half-life (days): 0.7

Q: Which boiling point does the source give for C=CCC(O)C=C (configuration not stated) here?
A: 134 °C

Q: For c1ccc2occc2c1, which boiling point is on record?
A: 174 °C

Q: And the log10 vapour pressure (mmHg)?
A: -0.356

Q: With O=C(O)CP(=O)(O)O as the compound, how does the melting point read?
A: 144 °C

Q: With CCC(C)(CC)C(C)C as the compound, how does the boiling point read?
A: 145 °C

Q: With CC(=O)c1ccccc1C as the compound, how does the boiling point read?
A: 214 °C

Q: Which boiling point does the source give for BrCC(Br)Br here?
A: 189 °C

Q: And the melting point?
A: -29.3 °C

Q: With c1ccc2c(c1)-c1cc3ccccc3c3cc4ccccc4c-2c13 as the compound, how does the melting point read?
A: 232 °C

Q: What does the source list for CC(C)(C)CO?
A: boiling point: 114 °C; log10 vapour pressure (mmHg): 1.2; melting point: 52.5 °C

Q: For CCCC(=O)c1ccc(Cl)cc1, which melting point is on record?
A: 19.5 °C

Q: With CCCC(N)=O as the compound, how does the boiling point read?
A: 216 °C

Q: And the log10 vapour pressure (mmHg)?
A: -2.41

Q: And the melting point?
A: 115 °C

Q: With CC1CCCCCCCCCCCCC(=O)C1 (configuration not stated) as the compound, how does the boiling point read?
A: 329 °C

Q: With Cl[C@H]1[C@H](Cl)[C@@H](Cl)[C@@H](Cl)[C@H](Cl)[C@H]1Cl (racemic) as the compound, how does the log10 Henry constant (atm·m³/mol) read?
A: -5.5

Q: What about the log10 Koa of the same compound?
A: 8.29

Q: And the log10 Koc (L/kg)?
A: 3.17

Q: And the log10 BCF?
A: 3.04

Q: Which melting point does the source give for CC(=O)NN here?
A: 67 °C

Q: With O=[N+]([O-])c1ccc(Cl)cc1O as the compound, how does the melting point read?
A: 41 °C

Q: Which melting point does the source give for CP(C)(=O)O here?
A: 92 °C

Q: For CN1C(C(=O)Nc2ccccn2)=C(O)c2ccccc2S1(=O)=O, which melting point is on record?
A: 199 °C

Q: Which melting point does the source give for COc1cccc(C(=O)O)c1O here?
A: 151 °C

Q: Which boiling point does the source give for CCCCOCCOC(C)=O here?
A: 192 °C

Q: And the log10 Henry constant (atm·m³/mol)?
A: -5.26

Q: What about the log10 vapour pressure (mmHg) of the same compound?
A: -0.426

Q: And the melting point?
A: -63 °C

Q: For CC1CC(C)NC(C)C1 (configuration not stated), which boiling point is on record?
A: 145 °C

Q: Which boiling point does the source give for Cn1ccccc1=O here?
A: 250 °C

Q: And the melting point?
A: 31 °C

Q: Which boiling point does the source give for C=C(C)C1CC=C(CO)CC1 (configuration not stated) here?
A: 244 °C

Q: With CC12CCCC1C1CCC3CCCCC3(C)C1CC2 (configuration not stated) as the compound, how does the log10 biotransformation half-life (days) read?
A: 1.67

Q: With N#Cc1cccc(C(F)(F)F)c1 as the compound, how does the boiling point read?
A: 189 °C

Q: What about the melting point of the same compound?
A: 14.5 °C

Q: Which melting point does the source give for c1cnc2ncncc2n1 here?
A: 140 °C

Q: With Nc1cccc([N+](=O)[O-])c1N as the compound, how does the melting point read?
A: 158 °C

Q: With CCCCCCCCCCCCCCCC(=O)OC[C@H](COP(=O)([O-])OCC[N+](C)(C)C)OC(=O)CCCCCCCCCCCCCCC as the compound, how does the melting point read?
A: 234 °C

Q: What does the source list for COc1cc(Oc2ccc(Cl)cc2Cl)ccc1[N+](=O)[O-]?
A: log10 vapour pressure (mmHg): -4.85; melting point: 114 °C; log10 BCF: 3.59

Q: With CN1CSC(=S)N(C)C1 as the compound, how does the log10 Henry constant (atm·m³/mol) read?
A: -9.58

Q: What about the log10 Koc (L/kg) of the same compound?
A: 1

Q: And the log10 vapour pressure (mmHg)?
A: -5.55

Q: And the melting point?
A: 106 °C

Q: What about the ready biodegradability of the same compound?
A: not readily biodegradable

Q: Which boiling point does the source give for O=C(/C=C/c1ccccc1)c1ccccc1 here?
A: 346 °C

Q: And the melting point?
A: 57.5 °C

Q: For c1ccc(CN(CC2=NCCN2)c2ccccc2)cc1, which melting point is on record?
A: 120 °C

Q: With CC(=O)[O-].[NH4+] as the compound, how does the melting point read?
A: 114 °C

Q: What does the source list for CC1=NCCN1?
A: boiling point: 196 °C; melting point: 107 °C

Q: Which boiling point does the source give for CCOS(=O)OCC here?
A: 158 °C

Q: For CCCCCC(=O)OCC(COC(=O)CCCCC)OC(=O)CCCCC, which melting point is on record?
A: -60 °C

Q: With CC(=O)OCC(C)C as the compound, how does the boiling point read?
A: 116 °C

Q: And the log10 Henry constant (atm·m³/mol)?
A: -3.34

Q: What about the log10 Koa of the same compound?
A: 3.45

Q: What about the log10 vapour pressure (mmHg) of the same compound?
A: 1.25

Q: What about the melting point of the same compound?
A: -98.8 °C

Q: What about the ready biodegradability of the same compound?
A: readily biodegradable

Q: What does the source list for N#Cc1ccccc1?
A: boiling point: 191 °C; log10 Koa: 4.46; log10 vapour pressure (mmHg): -0.115; melting point: -12.7 °C; ready biodegradability: readily biodegradable

Q: Which boiling point does the source give for Cc1ccc(C)o1 here?
A: 93.5 °C

Q: What about the melting point of the same compound?
A: -62.8 °C

Q: For C=C1C(=O)O[C@@H]2[C@H]1CC[C@H](C)[C@]1(O)C=CC(=O)[C@@]21C, which melting point is on record?
A: 164 °C

Q: With Cn1ccccc1=S as the compound, how does the melting point read?
A: 89.5 °C

Q: What does the source list for COc1c(O)c(Cl)c(Cl)c(Cl)c1Cl?
A: log10 Koc (L/kg): 2.85; log10 vapour pressure (mmHg): -4.08; log10 BCF: 3.08

Q: Which melting point does the source give for O=C1OC2(c3ccccc31)c1ccc(O)c(Br)c1Oc1c2ccc(O)c1Br here?
A: 285 °C

Q: Which results are given for CCCCC(C)S (configuration not stated)?
A: boiling point: 142 °C; melting point: -147 °C

Q: For CN.Cl, which melting point is on record?
A: 228 °C

Q: Which melting point does the source give for O=[N+]([O-])O[C@H]1CO[C@H]2[C@@H]1OC[C@H]2O[N+](=O)[O-] here?
A: 70 °C

Q: With C=C(C)CCC(C)C as the compound, how does the boiling point read?
A: 112 °C

Q: For O=C(Cl)c1cccc(Cl)c1, which boiling point is on record?
A: 225 °C

Q: And the log10 vapour pressure (mmHg)?
A: -0.854

Q: With COc1ccc(C=Cc2ccc(OC)cc2)cc1 as the compound, how does the melting point read?
A: 214 °C

Q: With CC1(C)[C@H]2CC=C(CO)[C@@H]1C2 as the compound, how does the boiling point read?
A: 222 °C

Q: For O=C(O)c1c(Cl)c(Cl)c(Cl)c(Cl)c1C(=O)O, which log10 Koc (L/kg) is on record?
A: 3.3

Q: For CCc1cccc2ccccc12, which boiling point is on record?
A: 259 °C

Q: What about the log10 Henry constant (atm·m³/mol) of the same compound?
A: -3.16

Q: And the log10 Koc (L/kg)?
A: 3.78

Q: And the log10 vapour pressure (mmHg)?
A: -1.6

Q: And the melting point?
A: -13.9 °C
